From patent US20240043427A1 (Gilead Sciences, Inc., priority 2020, published 2024)

What was measured:
CD73 [1] = target: T1, CD73 (Homo sapiens (Human), UniProt P21589); type: biochemical; conditions: 1 mM NaH2PO4 in enzyme buffer, CD73 0.3 nM, AMP 15 uM
CD73 [2] = target: T1, CD73; assay: MDA-MB-231 Cell Based CD73 Activity Assay (DMEM); conditions: MDA-MB-231-GFP cells, DMEM medium with 10% human plasma, 200 uM AMP

T1 sequence (P21589 27-574): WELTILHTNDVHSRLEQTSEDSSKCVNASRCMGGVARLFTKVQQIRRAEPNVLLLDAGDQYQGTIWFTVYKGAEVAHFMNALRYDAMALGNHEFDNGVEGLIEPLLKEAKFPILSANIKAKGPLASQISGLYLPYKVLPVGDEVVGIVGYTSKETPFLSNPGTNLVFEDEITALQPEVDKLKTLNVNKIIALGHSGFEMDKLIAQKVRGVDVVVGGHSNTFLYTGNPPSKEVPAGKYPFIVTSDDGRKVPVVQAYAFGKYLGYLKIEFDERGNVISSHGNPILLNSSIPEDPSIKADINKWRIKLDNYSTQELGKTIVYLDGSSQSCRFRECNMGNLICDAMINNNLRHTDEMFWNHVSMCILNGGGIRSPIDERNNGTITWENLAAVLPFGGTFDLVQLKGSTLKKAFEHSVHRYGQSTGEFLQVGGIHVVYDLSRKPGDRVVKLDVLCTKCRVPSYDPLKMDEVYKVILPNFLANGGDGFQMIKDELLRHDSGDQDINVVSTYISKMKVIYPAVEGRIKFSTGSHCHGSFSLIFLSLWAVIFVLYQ

| IC50 (CD73 [1]) | EC50 (CD73 [2]) | SMILES |
| --- | --- | --- |
| 10.9 nM | 72.8 nM | N#Cc1ccc(O[C@@H]2CN(c3cc(-c4c[nH]c(=O)[nH]c4=O)nn4ccnc34)CC2(F)F)nc1 [Example 338, (R)-6-((1-(6-(2,4-dioxo-1,2,3,4-tetrahydropyrimidin-5-yl)imidazo[1,2-b]pyridazin-8-yl)-4,4-difluoropyrrolidin-3-yl)oxy)nicotinonitrile] |
| 0.91 nM | 2.6 nM | N#Cc1ccc(O[C@H]2CN(c3cc(-c4c[nH]c(=O)[nH]c4=O)nn4ccnc34)CC2(F)F)nc1 [Example 339, (S)-6-((1-(6-(2,4-dioxo-1,2,3,4-tetrahydropyrimidin-5-yl)imidazo[1,2-b]pyridazin-8-yl)-4,4-difluoropyrrolidin-3-yl)oxy)nicotinonitrile] |
| 0.43 nM | 0.53 nM | O=c1[nH]cc(-c2cc(N3C[C@H](Oc4cc(C(F)F)ccn4)C(F)(F)C3)c3nccn3n2)c(=O)[nH]1 [Example 341, (S)-5-(8-(4-((4-(difluoromethyl)pyridin-2-yl)oxy)-3,3-difluoropyrrolidin-1-yl)imidazo[1,2-b]pyridazin-6-yl)pyrimidine-2,4(1H,3H)-dione] |
| 1.4 nM | 3.82 nM | N#Cc1ccnc(O[C@H]2CN(c3cc(-c4c[nH]c(=O)[nH]c4=O)nn4ccnc34)CC2(F)F)c1 [Example 342, 2-[(3S)-1-[6-(2,4-dioxo-1H-pyrimidin-5-yl)imidazo[1,2-b]pyridazin-8-yl]-4,4-difluoro-pyrrolidin-3-yl]oxypyridine-4-carbonitrile] |
| 48.2 nM | 129 nM | O=c1[nH]cc(-c2cc(N3CC(OC(F)F)C4(CC4)C3)c3nccn3n2)c(=O)[nH]1 (centres unmarked) [Example 343, 5-[8-[7-(difluoromethoxy)-5-azaspiro[2.4]heptan-5-yl]imidazo[1,2-b]pyridazin-6-yl]-1H-pyrimidine-2,4-dione] |
| 38.4 nM | 97 nM | O=c1[nH]cc(-c2cc(N3CC(O)C4(CC4)C3)c3nccn3n2)c(=O)[nH]1 (centres unmarked) [Example 344, 5-[8-(7-hydroxy-5-azaspiro[2.4]heptan-5-yl)imidazo[1,2-b]pyridazin-6-yl]-1H-pyrimidine-2,4-dione] |
| 10.2 nM | 98 nM | O=c1[nH]cc(-c2cc(N3CC(Oc4ccc(C(F)(F)F)cn4)C4(CC4)C3)c3nccn3n2)c(=O)[nH]1 (centres unmarked) [Example 345, 5-[8-[7-[[5-(trifluoromethyl)-2-pyridyl]oxy]-5-azaspiro[2.4]heptan-5-yl]imidazo[1,2-b]pyridazin-6-yl]-1H-pyrimidine-2,4-dione] |
| 6.08 nM | 24.4 nM | O=c1[nH]cc(-c2cc(N3CC(c4ccccc4)C(F)(F)C3)c3nccn3n2)c(=O)[nH]1 (centres unmarked) [Example 346, 5-(8-(3,3-difluoro-4-phenylpyrrolidin-1-yl)imidazo[1,2-b]pyridazin-6-yl)pyrimidine-2,4(1H,3H)-dione] |
| 4.39 nM | 11.9 nM | O=c1[nH]cc(-c2cc(N3CC[C@@H](OC(F)F)C3)c3nccn3n2)c(=O)[nH]1 [Example 347, (R)-5-(8-(3-(difluoromethoxy)pyrrolidin-1-yl)imidazo[1,2-b]pyridazin-6-yl)pyrimidine-2,4(1H,3H)-dione] |
| 54 nM | 121 nM | O=c1[nH]cc(-c2cc(N3CC[C@H](OC(F)F)C3)c3nccn3n2)c(=O)[nH]1 [Example 348, (S)-5-(8-(3-(difluoromethoxy)pyrrolidin-1-yl)imidazo[1,2-b]pyridazin-6-yl)pyrimidine-2,4(1H,3H)-dione] |
| 148 nM | 124 nM | COC1CN(c2cc(-c3c[nH]c(=O)[nH]c3=O)nn3ccnc23)CC12CC2 (centres unmarked) [Example 349, 5-(8-(7-methoxy-5-azaspiro[2.4]heptan-5-yl)imidazo[1,2-b]pyridazin-6-yl)pyrimidine-2,4(1H,3H)-dione] |
| > 250 nM | 1000 nM | O=c1[nH]cc(-c2cc(N3C[C@@H]4[C@H](C3)[C@H]4C(F)(F)F)c3nccn3n2)c(=O)[nH]1 [Example 352, 5-(8-((1R,5S,6r)-6-(trifluoromethyl)-3-azabicyclo[3.1.0]hexan-3-yl)imidazo[1,2-b]pyridazin-6-yl)pyrimidine-2,4(1H,3H)-dione] |
| 69.6 nM | 109 nM | O=c1[nH]cc(-c2cc(N3CCC(C(F)(F)F)(C(F)(F)F)C3)c3nccn3n2)c(=O)[nH]1 [Example 353, 5-(8-(3,3-bis(trifluoromethyl)pyrrolidin-1-yl)imidazo[1,2-b]pyridazin-6-yl)pyrimidine-2,4(1H,3H)-dione] |
| 90.8 nM | 401 nM | N#CC12CC1CN(c1cc(-c3c[nH]c(=O)[nH]c3=O)nn3ccnc13)C2 (centres unmarked) [Example 354, 3-(6-(2,4-dioxo-1,2,3,4-tetrahydropyrimidin-5-yl)imidazo[1,2-b]pyridazin-8-yl)-3-azabicyclo[3.1.0]hexane-1-carbonitrile] |
| 7.56 nM | 14.5 nM | O=c1[nH]cc(-c2cc(N3CC4CC4(F)C3)c3nccn3n2)c(=O)[nH]1 (centres unmarked) [Example 355, 5-(8-(1-fluoro-3-azabicyclo[3.1.0]hexan-3-yl)imidazo[1,2-b]pyridazin-6-yl)pyrimidine-2,4(1H,3H)-dione] |

Continued, molecule first:

| SMILES | IC50 (CD73 [1]) | EC50 (CD73 [2]) |
| --- | --- | --- |
| O=c1[nH]cc(-c2cc(N3C[C@@H](Oc4ccc(OC(F)(F)F)cn4)C(F)(F)C3)c3nccn3n2)c(=O)[nH]1 [Example 334, (R)-5-(8-(3,3-difluoro-4-((5-(trifluoromethoxy)pyridin-2-yl)oxy)pyrrolidin-1-yl)imidazo[1,2-b]pyridazin-6-yl)pyrimidine-2,4(1H,3H)-dione] | 24.4 nM | 118 nM |
| O=c1[nH]cc(-c2cc(N3C[C@H](Oc4ccc(OC(F)(F)F)cn4)C(F)(F)C3)c3nccn3n2)c(=O)[nH]1 [Example 335, (S)-5-(8-(3,3-difluoro-4-((5-(trifluoromethoxy)pyridin-2-yl)oxy)pyrrolidin-1-yl)imidazo[1,2-b]pyridazin-6-yl)pyrimidine-2,4(1H,3H)-dione] | 2.8 nM | 6.77 nM |
| O=c1[nH]cc(-c2cc(N3C[C@@H](Oc4ccc(OC(F)(F)C(F)(F)F)cn4)C(F)(F)C3)c3nccn3n2)c(=O)[nH]1 [Example 336, (R)-5-(8-(3,3-difluoro-4-((5-(perfluoroethoxy)pyridin-2-yl)oxy)pyrrolidin-1-yl)imidazo[1,2-b]pyridazin-6-yl)pyrimidine-2,4(1H,3H)-dione] | 34.9 nM | > 250 nM |
| O=c1[nH]cc(-c2cc(N3C[C@H](Oc4ccc(OC(F)(F)C(F)(F)F)cn4)C(F)(F)C3)c3nccn3n2)c(=O)[nH]1 [Example 337, (S)-5-(8-(3,3-difluoro-4-((5-(perfluoroethoxy)pyridin-2-yl)oxy)pyrrolidin-1-yl)imidazo[1,2-b]pyridazin-6-yl)pyrimidine-2,4(1H,3H)-dione] | 3.29 nM | 15.9 nM |
| O=c1[nH]cc(-c2cc(N3CC(Oc4cnc(C(F)(F)F)cn4)C(F)(F)C3)c3nccn3n2)c(=O)[nH]1 (centres unmarked) [Example 340, 5-(8-(3,3-difluoro-4-((5-(trifluoromethyl)pyrazin-2-yl)oxy)pyrrolidin-1-yl)imidazo[1,2-b]pyridazin-6-yl)pyrimidine-2,4(1H,3H)-dione] | 1.48 nM | 19 nM |
| O=c1[nH]cc(-c2cc(N3CC(F)(F)C4(CC4)C3)n3nccc3n2)c(=O)[nH]1 [Example 350, 5-(7-(7,7-difluoro-5-azaspiro[2.4]heptan-5-yl)pyrazolo[1,5-a]pyrimidin-5-yl)pyrimidine-2,4(1H,3H)-dione] | 12 nM | 99.3 nM |
| O=c1[nH]cc(-c2cc(N3CC(F)(F)C(F)(F)C3)c3ncc(F)n3n2)c(=O)[nH]1 [Example 351, 5-(3-fluoro-8-(3,3,4,4-tetrafluoropyrrolidin-1-yl)imidazo[1,2-b]pyridazin-6-yl)pyrimidine-2,4(1H,3H)-dione] | 10.6 nM | 56.4 nM |
| O=c1[nH]cc(-c2cc(N3CC(F)(F)C(F)(F)C3)n3ncnc3n2)c(=O)[nH]1 [Example 356, 5-(7-(3,3,4,4-tetrafluoropyrrolidin-1-yl)-[1,2,4]triazolo[1,5-a]pyrimidin-5-yl)pyrimidine-2,4(1H,3H)-dione] | > 250 nM | 916 nM |
| O=c1[nH]cc(-c2cc(N3CC(F)(F)C4(CC4)C3)n3ncnc3n2)c(=O)[nH]1 [Example 357, 5-(7-(7,7-difluoro-5-azaspiro[2.4]heptan-5-yl)-[1,2,4]triazolo[1,5-a]pyrimidin-5-yl)pyrimidine-2,4(1H,3H)-dione] | > 250 nM | 402 nM |
| O=c1[nH]cc(-c2cc(N3CC(F)(F)C(F)(F)C3)n3nccc3n2)c(=O)[nH]1 [Example 358, 5-(7-(3,3,4,4-tetrafluoropyrrolidin-1-yl)pyrazolo[1,5-a]pyrimidin-5-yl)pyrimidine-2,4(1H,3H)-dione] | 27.8 nM | 82.2 nM |
| O=c1[nH]cc(-c2cc([C@H]3C[C@@H]3c3ncc(Br)cn3)c3nccn3n2)c(=O)[nH]1 [Example 380, 5-(8-((1S,2S)-2-(5-bromopyrimidin-2-yl)cyclopropyl)imidazo[1,2-b]pyridazin-6-yl)pyrimidine-2,4(1H,3H)-dione] | 3.43 nM | 14.3 nM |
| O=C1N(CC(F)(F)F)c2cc([C@H]3C[C@@H]3c3cc(-c4c[nH]c(=O)[nH]c4=O)nn4c(F)cnc34)ccc2C12CC2 [Example 381, 5-(3-fluoro-8-((1S,2S)-2-(2′-oxo-1′-(2,2,2-trifluoroethyl)spiro[cyclopropane-1,3′-indolin]-6′-yl)cyclopropyl)imidazo[1,2-b]pyridazin-6-yl)pyrimidine-2,4(1H,3H)-dione] | 0.69 nM | 0.16 nM |
| O=C1N(CC(F)(F)F)c2cc([C@H]3C[C@@H]3c3cc(-c4c[nH]c(=O)[nH]c4=O)nn4ccnc34)ccc2C12CCC2 [Example 384, 5-(8-((1S,2S)-2-(2′-oxo-1′-(2,2,2-trifluoroethyl)spiro[cyclobutane-1,3′-indolin]-6′-yl)cyclopropyl)imidazo[1,2-b]pyridazin-6-yl)pyrimidine-2,4(1H,3H)-dione] | 1.27 nM | 0.24 nM |
